Measurements from paper PMC12640828 (Frontiers in Pharmacology, 2025).

Columns and labels:
Rat cardiac H9C2 cells = assay: MTT-cell viability assay; type: cell-based; details: 1 μM, 3 μM and 10 µM, 4 days, MTT colorimetric
Method: The rat cardiac H9C2 cells were maintained in Dulbecco’s Modified Eagle Medium (DMEM) cell culture medium (supplemented with 10% fetal bovine serum, 4.5 gm/liter D-glucose, and 1x penicillin-streptomycin antibiotic solution) and grown at 37 °C in a humidified incubator with 5% CO2. Cells in a 96-well plate were treated with 1 μM, 3 μM, and 10 µM concentrations of NMEG-CGRP and CMEG-CGRP and further grown for 4 days. The cell viability assay was performed using colorimetric MTT-cell proliferation kit I (Roche-Millipore Sigma, St Louis, MO) following the vendor’s protocol.

[1] = target: T1, insulin-degrading enzyme (IDE) (Homo sapiens, UniProt P14735); assay: In vitro peptide digestion with IDE followed by LC-MS; type: in vitro ADME; details: 100 µM peptide, 0.1 µg IDE, 50 mM Tris-Cl pH 7.5 + 1M NaCl, 25 µL, 37 °C, sampled at 5, 30, 60 min
T1 construct: purchased R&D Systems, Minneapolis, MN
T1 sequence (P14735 1-1019): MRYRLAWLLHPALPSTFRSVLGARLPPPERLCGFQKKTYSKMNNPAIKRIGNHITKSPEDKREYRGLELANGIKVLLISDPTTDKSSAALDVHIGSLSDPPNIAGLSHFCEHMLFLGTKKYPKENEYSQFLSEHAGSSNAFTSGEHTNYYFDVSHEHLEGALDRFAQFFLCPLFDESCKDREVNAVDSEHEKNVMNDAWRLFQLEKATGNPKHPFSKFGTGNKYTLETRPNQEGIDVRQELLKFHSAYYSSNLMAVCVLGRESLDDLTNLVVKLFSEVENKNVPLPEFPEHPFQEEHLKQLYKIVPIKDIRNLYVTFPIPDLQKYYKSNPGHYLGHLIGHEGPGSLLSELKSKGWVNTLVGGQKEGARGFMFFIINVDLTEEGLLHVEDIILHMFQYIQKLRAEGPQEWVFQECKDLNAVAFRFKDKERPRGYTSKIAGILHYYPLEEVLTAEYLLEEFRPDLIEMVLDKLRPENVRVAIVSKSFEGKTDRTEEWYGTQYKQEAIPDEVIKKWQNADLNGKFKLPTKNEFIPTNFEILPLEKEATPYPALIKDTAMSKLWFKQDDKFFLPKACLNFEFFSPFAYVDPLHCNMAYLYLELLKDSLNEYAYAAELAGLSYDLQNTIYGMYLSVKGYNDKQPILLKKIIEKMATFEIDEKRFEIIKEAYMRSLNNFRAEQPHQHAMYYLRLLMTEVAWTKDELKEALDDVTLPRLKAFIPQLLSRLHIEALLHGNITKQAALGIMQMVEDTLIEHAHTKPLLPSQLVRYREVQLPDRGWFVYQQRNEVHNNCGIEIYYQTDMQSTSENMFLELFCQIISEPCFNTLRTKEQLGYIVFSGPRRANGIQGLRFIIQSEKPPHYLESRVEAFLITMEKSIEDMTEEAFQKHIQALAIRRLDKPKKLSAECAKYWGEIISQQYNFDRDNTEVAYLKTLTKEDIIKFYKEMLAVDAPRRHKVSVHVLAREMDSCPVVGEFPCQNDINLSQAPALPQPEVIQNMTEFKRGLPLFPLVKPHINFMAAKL
Method: An equal volume (25 µL) of 10% formic acid (Sigma) was added. After heating the reaction at 95 °C for 5 min, desalting of the peptides was carried out using Pierce C18 tips (87782; ThermoFisher Scientific). For peptide-desalting, 30 µL of 2.5% trifluoroacetic acid (TFA) was added in a total 50 µL of the peptide-digestion reaction. Pierce C18 tips were wetted in 50% acetonitrile:water soln, equilibrated with 0.1% TFA, and peptides were passed through the C18 tips. After washing the C18 tips with 0.1% TFA in 5% acetonitrile:water soln, peptides were eluted in 10 µL of 0.1% formic acid in 75% acetonitrile: water soln and stored at −80 °C. Desalted peptide samples were submitted for Liquid Chromatography Mass Spectrometry (LC-MS) analysis to the University of South Carolina-Mass Spectrometry Center.

[2] = test system: TAC pressure-overload induced HF in mice; assay: TAC pressure-overload heart failure in mice: echocardiography and heart weight; type: in vivo, male C57BL/6 mice; details: 3.6 mg/kg/mouse s.c. on alternate days for 28 days
Method: Eight-week-old male C57BL/6 mice, purchased from Charles River Laboratories (Wilmington, MA), were housed in the institutional animal facility on a 12 h light/12 h dark cycle with free access to food and water throughout. Animal protocols were approved by the University of South Carolina-Institutional Animal Care and Use Committee (IACUC) following the NIH guidelines.
A transverse aortic constriction (TAC) procedure was followed to induce pressure-overload HF in mice ([Li et al., 2013]; [Kumar et al., 2019b]; [Kumar et al., 2020]). Briefly, mice were anesthetized under 1%–2% isoflurane and the chests of these mice were opened through the suprasternal notch. A 7–0 polypropylene suture was passed under the aortic arch between the left common carotid and innominate arteries and tied around the aorta and a 27-G needle. After tying a knot, the needle was removed, and the chest was closed using a 6–0 suture. Mice were kept on the 37 °C heat pad until they recovered and buprenorphine (0.1 mg/kg/mouse) was given subcutaneously (s.c.) as post-operative care. An identical procedure except tying a knot around the aortic arch was performed in the Sham groups of mice. Two days post-TAC, mice were divided into four groups (6–7 mice/gr): i- Sham, ii- Sham+NMEG-CGRP, iii- TAC, and iv- TAC+NMEG-CGRP. A stock solution 1 mg/mL of NMEG-CGRP was prepared in sterile 0.9% NaCl soln and NMEG-CGRP at 3.6 mg/kg/mouse dose was injected s.c. in the Sham+NMEG-CGRP and TAC+NMEG-CGRP groups of mice on alternate days for a total of 28 days. […]
The short axis 2D echocardiography was performed before TAC procedure (day 0) and then weekly after start of NMEG-CGRP administration in all groups of mice under 1%–2% isoflurane anesthesia using Vevo 3100 High-Resolution Imaging System (VisualSonics Inc., Toronto, Canada) and cardiac parameters were calculated using VisualSonics Measurement Software ([Li et al., 2013]; [Kumar et al., 2020]).

Solubility in water = type: physicochemical

Time to complete digestion of full-length peptide by IDE [1]	EF, Sham vs. Sham+NMEG-CGRP ([2]; sham mice, day 30)	Fractional shortening (FS), Sham vs. Sham+NMEG-CGRP ([2]; sham mice, day 30)	Solubility in water (Solubility in water)	Compound	Viability of cardiac cells (MTT optical density vs control) (Rat cardiac H9C2 cells)	Abnormalities / adverse effect in mice during NMEG-CGRP delivery ([2]; Sham- and TAC-mice)
> 60 min	non-significant	non-significant	soluble in water	COCCNCC(=O)N(CCOC)CC(=O)N[C@@H](C)C(=O)N[C@H]1CSSC[C@@H](C(=O)N[C@H](C(=O)N[C@H](C(=O)N[C@@H](Cc2c[nH]cn2)C(=O)N[C@@H](CCCNC(=N)N)C(=O)N[C@@H](CC(C)C)C(=O)N[C@@H](C)C(=O)NCC(=O)N[C@@H](CC(C)C)C(=O)N[C@@H](CC(C)C)C(=O)N[C@@H](CO)C(=O)N[C@@H](CCCNC(=N)N)C(=O)N[C@@H](CO)C(=O)NCC(=O)NCC(=O)N[C@H](C(=O)N[C@H](C(=O)N[C@@H](CCCCN)C(=O)N[C@@H](CC(N)=O)C(=O)N[C@@H](CC(N)=O)C(=O)N[C@@H](Cc2ccccc2)C(=O)N[C@H](C(=O)N2CCC[C@H]2C(=O)N[C@H](C(=O)N[C@@H](CC(N)=O)C(=O)N[C@H](C(=O)NCC(=O)N[C@@H](CO)C(=O)N[C@@H](CCCCN)C(=O)N[C@@H](C)C(=O)N[C@@H](Cc2ccccc2)C(N)=O)C(C)C)[C@@H](C)O)C(C)C)C(C)C)C(C)C)[C@@H](C)O)C(C)C)NC(=O)[C@H]([C@@H](C)O)NC(=O)[C@H](C)NC(=O)[C@H]([C@@H](C)O)NC(=O)[C@H](CC(=O)O)NC1=O [NMEG-CGRP]	did not inhibit the growth of H9C2 cells	did not observe any abnormalities
5 to 30 min				CC(C)C[C@H](NC(=O)CNC(=O)[C@H](C)NC(=O)[C@H](CC(C)C)NC(=O)[C@H](CCCNC(=N)N)NC(=O)[C@H](Cc1cnc[nH]1)NC(=O)[C@@H](NC(=O)[C@@H](NC(=O)[C@@H]1CSSC[C@H](NC(=O)[C@H](C)N)C(=O)N[C@@H](CC(=O)O)C(=O)N[C@@H]([C@@H](C)O)C(=O)N[C@@H](C)C(=O)N[C@@H]([C@@H](C)O)C(=O)N1)C(C)C)[C@@H](C)O)C(=O)N[C@@H](CC(C)C)C(=O)N[C@@H](CO)C(=O)N[C@@H](CCCNC(=N)N)C(=O)N[C@@H](CO)C(=O)NCC(=O)NCC(=O)N[C@H](C(=O)N[C@H](C(=O)N[C@@H](CCCCN)C(=O)N[C@@H](CC(N)=O)C(=O)N[C@@H](CC(N)=O)C(=O)N[C@@H](Cc1ccccc1)C(=O)N[C@H](C(=O)N1CCC[C@H]1C(=O)N[C@H](C(=O)N[C@@H](CC(N)=O)C(=O)N[C@H](C(=O)NCC(=O)N[C@@H](CO)C(=O)N[C@@H](CCCCN)C(=O)N[C@@H](C)C(=O)N[C@@H](Cc1ccccc1)C(N)=O)C(C)C)[C@@H](C)O)C(C)C)C(C)C)C(C)C [human α-CGRP, reference compound]		
